Reference: patent US20260374750A1, “LIGANDS SPECIFICALLY TARGETING VESICULAR GLUTAMATE TRANSPORTERS FOR SUPER-RESOLUTION IMAGING” (SORBONNE UNIVERSITÉ, priority 2021, published 2026)

What was measured:
[1] = tested on: VGLUT3 (BON VGLUT3 cells); experiment: Confocal fluorescence labeling of BON cells expressing VGLUT3; assay type: cell-based, human (BON cells); details: for intensity of labeling in BON VGLUT3 cells relative to BON WT cells: FIG. 3, 20 minutes; for intensity of labeling in BON VGLUT3 cells relative to BON WT cells / fluorescence intensity in BON VGLUT3 cells relative to BON WT cells / labeling in cytoplasm of BON VGLUT3 cells: 37 °C; for fluorescence intensity in BON VGLUT3 cells relative to BON WT cells / labeling in cytoplasm of BON VGLUT3 cells / effect of LSP5 pretreatment on fluorescence intensity in BON VGLUT3 cells: FIG. 2; for fluorescence intensity in BON VGLUT3 cells relative to BON WT cells / labeling in cytoplasm of BON VGLUT3 cells: 1 h; for effect of LSP5 pretreatment on fluorescence intensity in BON VGLUT3 cells: pretreatment with LSP5-2157
Protocol: A “BON” cell line describes cells derived from human pancreatic carcinoma; the article by Ramet L. et al., published in J Neurosci, 2017, 37 (15), 4181-4199, describes such cells and the use thereof for the characterization of VGLUT type transporters.
The experiments are carried out with a BON cell line stably expressing VGLUT3 or a fluorescent VGLUT2 “VGLUT2-venus”. Wild non-transfected BON cells (“wild-type”, BON WT) are used as controls. The cells are cultured in F-12 Nutrient Mixture Ham medium (21765-029, Thermo Fisher Scientific) and Dulbecco's Modified Eagle's Medium High Glucose (DMEM HG, 31966021, Thermo Fisher Scientific; volume/volume), supplemented with 10% fetal calf serum (FCS, 12483012, Thermo Fisher Scientific) and 1% (volume/volume) of a mixture of streptomycin (10 mg/mL)/penicillin (10,000 U/mL) and […] an incubator at 37 °C under 5% CO2. For the transfected clones, the medium is enriched with 0.8 mg/mL Geneticin G418 sulfate (G418, 10131027, Thermo Fisher Scientific).
The cells are cultured in 25 cm^2 culture flasks. When the cells are at confluence, they are rinsed with sterile PBS 1× after aspiration of the medium, then incubated for five minutes at 37 °C with a solution of trypsin-EDTA (0.05% trypsin EDTA, 25300054, Thermo Fisher Scientific. The cell layer is then detached and the cells dissociated from each other. After addition of medium, the cell suspension is centrifuged for 5 minutes at 300 g, then the pellet is diluted 1:3 in order to be recultivated.
Two days before each experiment, after trypsinization of the cells from a culture flask, the cell suspension is seeded at 150,000 cells/well, in twelve-well plates on glass coverslips 19 mm in diameter. For observation, these coverslips are placed in a chamber allowing a hermetic fixation of the coverslip in the observation medium, Fluorobrite™ DMEM (A1896701, Thermo Fisher Scientific), a transparent medium.
Before each observation, the cells are incubated at 37 °C in the presence of fluorescent ligands, at previously determined concentrations. The effect of a pretreatment of BON cells with a specific inhibitor of VGLUTs, the substance LSP5-2157, is also performed to study the inhibitory effect of this substance on the labeling of BON cells with the fluorescent ligands of the invention.
The cells are observed in real time under an inverted confocal microscope, with a 63× objective in a room thermostated at 37 °C (Leica TCS SP5; cellular imaging platform of the Paris-Seine Institute of Biology). The studied fluorescent molecules emit in the blue, the cells are excited at 405 nm.
FIG. 2 illustrates the observation and quantification of the BON cells under a confocal microscope, and the inhibition of the fluorescent signal by a pretreatment of the cells with the specific VGLUT inhibitor, LSP5-2157. […] The images are presented in negative. D,H,L and P: Quantification of the treatment effect.
Different acquisitions of cells are carried out using a confocal microscope. […] Statistical analysis: Kruskal-Wallis test followed by Dunn's post-hoc test, NS: non-significant, *p<0.01; ***p<0.0001.
FIG. 3 illustrates the observation and quantification of BON cells using a confocal microscope. Wild-type cells (BON WT) or VGLUT3-expressing cells (BON VGLUT3) are incubated with different fluorescent ligands referenced: L8, YL151, D04, C07, C05, B09, G02, F11. After treatment with fluorescent ligands for 20 minutes at 37 °C, a fluorescent labeling is visible in BON cells. The effect of the treatment is analyzed by quantifying the fluorescence intensity in each cell type. […] Statistical analysis: Mann Whitney test, NS: non-significant, **p=0.0042; ***p<0.0001.

[2] = tested on: VGLUTs (GLU vesicular transport); experiment: Vesicular glutamate reuptake test ([3H]-glutamate, synaptic vesicles); assay type: biochemical, rat; details: for EC50: vesicular glutamate transport; for potency in words (EC50): based on EC50
Protocol: The EC50 was also determined for several of the compounds of the invention.
The vesicular glutamate reuptake was tested as previously described (Kish and Ueda, 1989; Naito and Ueda, 1985; Pietrancosta et al., 2010) with minor modifications. Aliquots of synaptic vesicles […] (obtained by differential centrifugation of rat cortex) were diluted in a solution containing 4 mM HEPES-KOH, pH 7.4 and 0.32M sucrose. The tested compounds were dissolved in 1% ethanol, 1% DMSO (pH was adjusted to 7.4 with 5% KOH) to initial concentrations comprised between 2 mM and 200 μM. The compounds were then diluted to desired final concentrations in a solution containing 10 mM HEPES-KOH, pH 7.4, 0.32 M sucrose, 4 mM KCl, 4 mM MgSO4 (named TPU). The tested compounds were pre-incubated in a solution containing 3 mM ATP-Mg, 1 mM L-aspartic acid, 100 μM glutamate and 0.4 mM […] and 0.4 μM [3H]-Glutamate (1.547 TBq/mmol). After 4 min at 37 °C, the reuptake reaction was initiated by the addition of rat synaptic vesicles. This mixture was incubated for 10 min at 37 °C before adding ice-cold TPU (3.5 mL) and rapidly filtering it through a membrane filter ([…], Millipore MF reference HAWP02500) using a vacuum collector. The filters were washed five times with 3.5 mL of cold TPU and placed in scintillation vials with a scintillation cocktail (optiphase hisafe 3, reference 1200-437, Perkin Elmer). The radioactivity related to the filters was measured in a Beckman LS 6500 scintillation spectrophotometer. The values obtained in the absence of ATP-Mg or in the presence of Carbonyl [COMPOUND LEFT OUT] 3-chlorophenylhydrazone (CCCP, 50 μM reference Sigma C2759) were used to determine the non-specific activity.

Structure (SMILES)	intensity of labeling in BON VGLUT3 cells relative to BON WT cells [1]	% inhibition of GLU vesicular transport at 20 μM ([2]; quinoline-derived compounds) [%]	EC50 ([2]; quinoline-derived compounds) [nM]	fluorescence intensity in BON VGLUT3 cells relative to BON WT cells [1]	labeling in cytoplasm of BON VGLUT3 cells [1]	effect of LSP5 pretreatment on fluorescence intensity in BON VGLUT3 cells [1]	% inhibition of GLU vesicular transport at 20 μM ([2]; coumarin-derived compounds) [%]	potency in words (EC50) [2]	EC50 ([2]; coumarin-derived compounds) [nM]
CCOC(=O)c1cc2cc(C#Cc3ccc(-c4ccc(N)cc4)cc3)c(O)cc2oc1=O [F11, Ethyl-6-((4′-amino-[1,1′-biphenyl]-4-yl)ethynyl)-7-hydroxy-2-oxo-2H-chromene-3-carboxylate]	increases significantly	–	–	–	–	–	–	–	–
O=C(O)c1cc(C(=O)O)c2cc(-c3ccc(-c4ccccc4)cc3)ccc2n1 [LSP13-1152-YL152 (L8), 6-(Biphenyl-4-yl) quinoline-2,4-dicarboxylic Acid]	increases significantly	49	22000	significantly increases	a punctiform labeling appears	decreases the fluorescence intensity	–	–	–
Nc1ccc(-c2ccc(-c3cn(-c4ccc5oc(=O)c(C(=O)O)cc5c4)nn3)cc2)cc1 [LSP17-1115, 6-(4-(4′-amino-[1,1′-biphenyl]-4-yl)-1H-1,2,3-triazol-1-yl)-2-oxo-2H-chromene-3-carboxylic Acid]	increases significantly	–	–	–	–	–	6	–	–
COc1cc2oc(=O)c(C(=O)O)cc2cc1-n1cc(-c2ccc(-c3ccc(N)cc3)cc2)nn1 [LSP17-1124, 6-(4-(4′-amino-[1,1′-biphenyl]-4-yl)-1H-1,2,3-triazol-1-yl)-7-methoxy-2-oxo-2H-chromene-3-carboxylic Acid]	increases significantly	–	–	–	–	–	100	effective at a very low concentration	400
Nc1ccc(-c2ccc(C#Cc3cc4cc(C(=O)O)c(=O)oc4cc3O)cc2)cc1 [LSP17-1173, 6-((4′-amino-[1,1′-biphenyl]-4-yl)ethynyl)-7-hydroxy-2-oxo-2H-chromene-3-carboxylic Acid]	increases significantly	–	–	significantly increases	a punctiform labeling appears	decreases the fluorescence intensity	100	effective at a very low concentration	500
